In patent US9579314B2 (priority 2015, dated 2017):

Columns and labels:
Human M3 receptor = Human M3 receptor (Homo sapiens, UniProt P20309); conditions: read-out: M3 binding affinity
Human β2 adrenoceptor = Human β2 adrenoceptor (Homo sapiens, UniProt P07550); conditions: read-out: B2 binding affinity
Chain of Human β2 adrenoceptor (P07550 whole entry): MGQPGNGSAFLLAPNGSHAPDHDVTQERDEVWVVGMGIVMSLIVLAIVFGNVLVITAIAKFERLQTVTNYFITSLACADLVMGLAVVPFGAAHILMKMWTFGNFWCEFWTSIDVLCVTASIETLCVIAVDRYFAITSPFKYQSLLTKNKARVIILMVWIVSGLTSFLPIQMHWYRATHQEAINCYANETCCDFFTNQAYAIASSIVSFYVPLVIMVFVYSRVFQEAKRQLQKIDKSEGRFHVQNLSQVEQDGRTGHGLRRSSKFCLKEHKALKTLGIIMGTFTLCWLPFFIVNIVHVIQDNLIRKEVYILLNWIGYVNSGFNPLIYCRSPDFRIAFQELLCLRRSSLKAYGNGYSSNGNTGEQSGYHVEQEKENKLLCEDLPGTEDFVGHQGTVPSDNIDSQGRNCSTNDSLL

Chain of Human M3 receptor (P20309 whole entry): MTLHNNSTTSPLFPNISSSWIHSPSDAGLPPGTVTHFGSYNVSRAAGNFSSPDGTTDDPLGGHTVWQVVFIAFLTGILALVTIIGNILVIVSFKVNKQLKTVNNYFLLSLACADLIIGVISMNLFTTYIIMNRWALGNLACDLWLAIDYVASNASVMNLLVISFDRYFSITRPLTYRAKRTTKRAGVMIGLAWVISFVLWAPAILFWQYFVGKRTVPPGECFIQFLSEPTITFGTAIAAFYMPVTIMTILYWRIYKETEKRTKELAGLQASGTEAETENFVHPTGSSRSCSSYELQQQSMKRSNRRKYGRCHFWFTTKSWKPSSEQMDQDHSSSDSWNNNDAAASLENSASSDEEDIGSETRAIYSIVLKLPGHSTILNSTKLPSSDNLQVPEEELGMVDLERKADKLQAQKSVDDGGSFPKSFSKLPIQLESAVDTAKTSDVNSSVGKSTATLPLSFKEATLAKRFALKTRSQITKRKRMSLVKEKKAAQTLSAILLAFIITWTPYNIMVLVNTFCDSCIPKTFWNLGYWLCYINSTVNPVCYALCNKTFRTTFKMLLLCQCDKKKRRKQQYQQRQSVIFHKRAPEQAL

Row | Compound | IC50 (Human M3 receptor) [nM] | IC50 (Human β2 adrenoceptor) [nM]
1 | O=C(c1ccc(CCNC[C@H](O)c2ccc(O)c3[nH]c(=O)ccc23)cc1)N1CCC2(CCCN(C(=O)c3ccc(COc4cccc([C@](O)(C(=O)OCC5CCN(Cc6ccccc6)CC5)c5ccccc5)c4)cc3)C2)CC1 [Compound 122, (1-benzylpiperidin-4-yl)methyl (S)-2-hydroxy-2-(3-((4-(9-(4-(2-(((R)-2-hydroxy-2-(8-hydroxy-2-oxo-1,2-dihydroquinolin-5-yl)ethyl)amino)ethyl)benzoyl)-2,9-diazaspiro[5.5]undecane-2-carbonyl)benzyl)oxy)phenyl)-2-phenylacetate] | 0.3 to 3 | > 3
2 | O=C(NCCCOc1cccc([C@](O)(C(=O)OCC2CCN(C3CCC3)CC2)c2ccccc2)c1)c1ccc(CNC[C@H](O)c2ccc(O)c3[nH]c(=O)ccc23)cc1 [Compound 161, (1-cyclobutylpiperidin-4-yl)methyl (S)-2-hydroxy-2-(3-(3-(4-((((R)-2-hydroxy-2-(8-hydroxy-2-oxo-1,2-dihydroquinolin-5-yl)ethyl)amino)methyl)benzamido)propoxy)phenyl)-2-phenylacetate] | 0.3 to 3 | < 0.3
3 | O=C(NC1CCN(C(=O)COc2cccc([C@](O)(C(=O)OCC3CCN(Cc4ccccc4)CC3)c3ccccc3)c2)CC1)c1ccc(CCNC[C@H](O)c2ccc(O)c3[nH]c(=O)ccc23)cc1 [Compound 92, (1-benzylpiperidin-4-yl)methyl (S)-2-hydroxy-2-(3-(2-(4-(4-(2-(((R)-2-hydroxy-2-(8-hydroxy-2-oxo-1,2-dihydroquinolin-5-yl)ethyl)amino)ethyl)benzamido)piperidin-1-yl)-2-oxoethoxy)phenyl)-2-phenylacetate] | < 0.3 | < 0.3
4 | O=C(N[C@H]1CCN(C(=O)COc2cccc([C@](O)(C(=O)OCC3CCN(Cc4ccccc4)CC3)c3ccccc3)c2)C1)c1ccc(CNC[C@H](O)c2ccc(O)c3[nH]c(=O)ccc23)cc1 [Compound 73, (1-benzylpiperidin-4-yl)methyl (S)-2-hydroxy-2-(3-(2-((S)-3-(4-((((R)-2-hydroxy-2-(8-hydroxy-2-oxo-1,2-dihydroquinolin-5-yl)ethyl)amino)methyl)benzamido)pyrrolidin-1-yl)-2-oxoethoxy)phenyl)-2-phenylacetate] | 0.3 to 3 | < 0.3
5 | O=C(COc1cccc([C@](O)(C(=O)OCC2CCN(Cc3ccccc3)CC2)c2ccccc2)c1)N[C@H]1C[C@H](NC(=O)c2ccc(CNC[C@H](O)c3ccc(O)c4[nH]c(=O)ccc34)nc2)C1 [Compound 145, (1-benzylpiperidin-4-yl)methyl (S)-2-hydroxy-2-(3-(2-(((1R,3S)-3-(6-((((R)-2-hydroxy-2-(8-hydroxy-2-oxo-1,2-dihydroquinolin-5-yl)ethyl)amino)methyl)nicotinamido)cyclobutyl)amino)-2-oxoethoxy)phenyl)-2-phenylacetate] | 0.3 to 3 | 0.3 to 3
6 | O=C(c1ccc(CCNC[C@H](O)c2ccc(O)c3[nH]c(=O)ccc23)cc1)N1CC2(C1)CN(C(=O)c1ccc(COc3cccc([C@](O)(C(=O)OCC4CCN(Cc5ccccc5)CC4)c4ccccc4)c3)cc1)C2 [Compound 116, (1-benzylpiperidin-4-yl)methyl (S)-2-hydroxy-2-(3-((4-(6-(4-(2-(((R)-2-hydroxy-2-(8-hydroxy-2-oxo-1,2-dihydroquinolin-5-yl)ethyl)amino)ethyl)benzoyl)-2,6-diazaspiro[3.3]heptane-2-carbonyl)benzyl)oxy)phenyl)-2-phenylacetate] | 0.3 to 3 | < 0.3
7 | O=C(OCC1CCN(Cc2ccccc2)CC1)[C@@](O)(c1ccccc1)c1cccc(OCCCCCCNCC(O)c2ccc(O)c3[nH]c(=O)ccc23)c1 (stereo in doubt) [Compound 27, (R)-(1-benzylpiperidin-4-yl)methyl 2-hydroxy-2-(3-((6-(((R)-2-hydroxy-2-(8-hydroxy-2-oxo-1,2-dihydroquinolin-5-yl)ethyl)amino)hexyl)oxy)phenyl)-2-phenylacetate] | > 3 | 0.3 to 3
8 | O=C(NCCCNC[C@H](O)c1ccc(O)c2[nH]c(=O)ccc12)c1ccc(COc2cccc([C@](O)(C(=O)OCC3CCN(Cc4ccccc4)CC3)c3ccccc3)c2)cc1 [Compound 43, (S)-(1-Benzylpiperidin-4-yl)methyl 2-hydroxy-2-(3-((4-((3-(((R)-2-hydroxy-2-(8-hydroxy-2-oxo-1,2-dihydroquinolin-5-yl)ethyl)amino)propyl)carbamoyl)benzyl)oxy)phenyl)-2-phenylacetate] | < 0.3 | < 0.3
9 | O=C(COc1cccc([C@](O)(C(=O)OCC2CCN(Cc3ccccc3)CC2)c2ccccc2)c1)N[C@H]1C[C@H](NC(=O)c2ccc(CNC[C@H](O)c3ccc(O)c4[nH]c(=O)ccc34)cc2Br)C1 [Compound 136, (1-benzylpiperidin-4-yl)methyl (S)-2-(3-(2-(((1R,3S)-3-(2-bromo-4-((((R)-2-hydroxy-2-(8-hydroxy-2-oxo-1,2-dihydroquinolin-5-yl)ethyl)amino)methyl)benzamido)cyclobutyl)amino)-2-oxoethoxy)phenyl)-2-hydroxy-2-phenylacetate] | 0.3 to 3 | < 0.3
10 | CC(C)Oc1cc(C(=O)NCCCOc2cccc([C@](O)(C(=O)OCC3CCN(Cc4ccccc4)CC3)c3ccccc3)c2)ccc1CNC[C@H](O)c1ccc(O)c2[nH]c(=O)ccc12 [Compound 32G, (S)-(1-benzylpiperidin-4-yl)methyl 2-hydroxy-2-(3-(3-(4-((((R)-2-hydroxy-2-(8-hydroxy-2-oxo-1,2-dihydroquinolin-5-yl)ethyl)amino)methyl)-3-isopropoxybenzamido)propoxy)phenyl)-2-phenylacetate] | 0.3 to 3 | 0.3 to 3
11 | COc1cc(C(=O)N2CCC3(CCN(C(=O)COc4cccc([C@](O)(C(=O)OCC5CCN(Cc6ccccc6)CC5)c5ccccc5)c4)CC3)CC2)ccc1CNC[C@H](O)c1ccc(O)c2[nH]c(=O)ccc12 [Compound 79, (1-benzylpiperidin-4-yl)methyl (S)-2-hydroxy-2-(3-(2-(9-(4-((((R)-2-hydroxy-2-(8-hydroxy-2-oxo-1,2-dihydroquinolin-5-yl)ethyl)amino)methyl)-3-methoxybenzoyl)-3,9-diazaspiro[5.5]undecan-3-yl)-2-oxoethoxy)phenyl)-2-phenylacetate] | < 0.3 | < 0.3
12 | CCOc1cc(C(=O)NCCCOc2cccc([C@](O)(C(=O)OCC3CCN(Cc4ccccc4)CC3)c3ccccc3)c2)ccc1CNC[C@H](O)c1ccc(O)c2[nH]c(=O)ccc12 [Compound 32D, (S)-(1-benzylpiperidin-4-yl)methyl 2-(3-(3-(3-ethoxy-4-((((R)-2-hydroxy-2-(8-hydroxy-2-oxo-1,2-dihydroquinolin-5-yl)ethyl)amino)methyl)benzamido)propoxy)phenyl)-2-hydroxy-2-phenylacetate] | 0.3 to 3 | < 0.3
13 | O=C(COc1cccc([C@](O)(C(=O)OCC2CCN(Cc3ccccc3)CC2)c2ccccc2)c1)N[C@H]1C[C@H](NC(=O)c2ccc(CCNC[C@H](O)c3ccc(O)c4[nH]c(=O)ccc34)cc2)C1 [Compound 88, (1-benzylpiperidin-4-yl)methyl (S)-2-hydroxy-2-(3-(2-(((1R,3S)-3-(4-(2-(((R)-2-hydroxy-2-(8-hydroxy-2-oxo-1,2-dihydroquinolin-5-yl)ethyl)amino)ethyl)benzamido)cyclobutyl)amino)-2-oxoethoxy)phenyl)-2-phenylacetate] | < 0.3 | 0.3 to 3
14 | O=C(NCCN(Cc1ccccc1)C(=O)COc1cccc([C@](O)(C(=O)OCC2CCN(Cc3ccccc3)CC2)c2ccccc2)c1)c1ccc(CCNC[C@H](O)c2ccc(O)c3[nH]c(=O)ccc23)cc1 [Compound 87, (1-benzylpiperidin-4-yl)methyl (S)-2-(3-(2-(benzyl(2-(4-(2-(((R)-2-hydroxy-2-(8-hydroxy-2-oxo-1,2-dihydroquinolin-5-yl)ethyl)amino)ethyl)benzamido)ethyl)amino)-2-oxoethoxy)phenyl)-2-hydroxy-2-phenylacetate] | 0.3 to 3 | 0.3 to 3
15 | O=C(OCC1CCN(Cc2ccccc2)CC1)[C@@](O)(c1ccccc1)c1cccc(OCCCCCNC[C@H](O)c2ccc(O)c3[nH]c(=O)ccc23)c1 [Compound 14, (R)-(1-benzylpiperidin-4-yl)methyl 2-hydroxy-2-(3-((5-(((R)-2-hydroxy-2-(8-hydroxy-2-oxo-1,2-dihydroquinolin-5-yl)ethyl)amino)pentyl)oxy)phenyl)-2-phenylacetate] | > 3 | < 0.3
16 | O=C(NCCCOc1cccc([C@](O)(C(=O)OCC2CCN(Cc3ccccc3)CC2)c2ccccc2)c1)c1ccc(CNC[C@H](O)c2ccc(O)c3[nH]c(=O)ccc23)c(F)c1F [Compound 32L, (S)-(1-benzylpiperidin-4-yl)methyl 2-(3-(3-(2,3-difluoro-4-((((R)-2-hydroxy-2-(8-hydroxy-2-oxo-1,2-dihydroquinolin-5-yl)ethyl)amino)methyl)benzamido)propoxy)phenyl)-2-hydroxy-2-phenylacetate] | 0.3 to 3 | > 3
17 | O=C(c1ccc(CCNC[C@H](O)c2ccc(O)c3[nH]c(=O)ccc23)cc1)N1CCC2(CC1)CN(C(=O)c1ccc(COc3cccc([C@](O)(C(=O)OCC4CCN(Cc5ccccc5)CC4)c4ccccc4)c3)cc1)CCO2 [Compound 121, (1-benzylpiperidin-4-yl)methyl (S)-2-hydroxy-2-(3-((4-(9-(4-(2-(((R)-2-hydroxy-2-(8-hydroxy-2-oxo-1,2-dihydroquinolin-5-yl)ethyl)amino)ethyl)benzoyl)-1-oxa-4,9-diazaspiro[5.5]undecane-4-carbonyl)benzyl)oxy)phenyl)-2-phenylacetate] | < 0.3 | < 0.3
18 | O=C(N[C@H]1CCCN(C(=O)COc2cccc([C@](O)(C(=O)OCC3CCN(Cc4ccccc4)CC3)c3ccccc3)c2)C1)c1ccc(CCNC[C@H](O)c2ccc(O)c3[nH]c(=O)ccc23)cc1 [Compound 108, (1-benzylpiperidin-4-yl)methyl (S)-2-hydroxy-2-(3-(2-((S)-3-(4-(2-(((R)-2-hydroxy-2-(8-hydroxy-2-oxo-1,2-dihydroquinolin-5-yl)ethyl)amino)ethyl)benzamido)piperidin-1-yl)-2-oxoethoxy)phenyl)-2-phenylacetate] | 0.3 to 3 | 0.3 to 3
